Tested on: alternative splicing of host transcripts in HeLa rtTA HIV∆Mls cells
Experiment: RT-PCR of host alternative splicing events (PSI), capillary electrophoresis
Type: cell-based
Protocol: To assess the effect of compounds on expression/alternative splicing of cellular RNA, two approaches were used. For both, total RNA was prepared from DMSO or compound-treated cells. In the first assay, samples were assayed by medium throughput RT-PCR to determine the inclusion levels of alternatively spliced exons and splice sites located in 73 selected events. 73 primer sets containing a fluorescently (5-FAM) labeled primer for each, were used in RT-PCR. PCR products generated were denatured in formamide and quantified using ABI Prism capillary sequencer (Life Technologies). The fragment analysis was performed on the PeakScanner software (Life Technologies) in batch mode and automated using custom scripts written in Python. The inclusion level of each exon was calculated as the amount of transcripts carrying the alternative exon relative to the total amount of all transcripts detected in the PCR reaction and results are summarized for compound-treatment in comparison to DMSO treatment. In the second assay, extracted RNA was processed using the Illumina TruSeq RNA Sample Preparation Kit (Illumina) according to the manufacturer’s instructions. The cDNA library generated was validated (passed quality control on a Bioanalyzer 1000 DNA chip (Agilent)), normalized and pooled for cluster generation. cDNA libraries were sequenced on the Illumina HiSeq 2500 (paired-end, 125 bp) with version 4 chemistry following manufacturer’s protocols. The full human genome and transcriptomic sequences were downloaded from the UCSC Genome Browser (genome.ucsc.edu) database and Ensembl (www.ensembl.org), respectively, as described by Irimia et al.. Exon annotations and genomic coordinates for alternative splicing (AS) analysis were derived from tables downloaded from the UCSC Genome Browser database. To determine gene expression (GE) or alternative splicing (AS) changes in an unbiased way, the effective number of unique mappable positions in each transcript (i.e. the effective length) was determined by aligning sequences with unique transcriptomic alignment to the human genome using Bowtie. Reads with one unique genomic alignment were then aligned against the canonical transcriptome and, for each transcript, the number of reads with one unique transcriptomic alignment were counted. The expression level of genes was quantified as corrected ‘reads per kilobase of exon model per million mapped reads’ (cRPKM), a widely used metric to estimate gene expression levels. The expression cutoff was 0.5 cRPKM, corresponding to the transcript of the gene being present if there were ≥10 reads that mapped uniquely to a single genomic locus. Approximately 19,847 Ensembl annotated protein-coding genes were compared to create a gene list of differentially expressed genes. Genes were considered differentially expressed if fold changes in cRPKM was ≥2 in compound-treated versus DMSO-treated samples.

[1] = of 70 AS events, 791 30 µM, 833 2 µM

O=C(NC(=S)NNC(=O)c1ccccc1O)c1ccc(-c2ccccc2)cc1 [Compound 833, N-([2-(2-hydroxybenzoyl)hydrazino]carbonothioyl}-4-biphenylcarboxamide]
DPSI AGPAT4_1 chr6:161506598-161506735 (5227833 minus DMSO, mean n=3): -3.33%
DPSI AGPAT4_1 chr6:161507269-161507439 (5227833 minus DMSO, mean n=3): -5.00%
DPSI APLP2_1 chr11:129498717-129498884 (5227833 minus DMSO, mean n=3): -2.67%
DPSI APP_1 chr21:26291546-26291602 (5227833 minus DMSO, mean n=3): -0.67%
DPSI APP_1 chr21:26294201-26294368 (5227833 minus DMSO, mean n=3): -0.67%
DPSI ATP6V0A1_1 chr17:37919833-37920004 (5227833 minus DMSO, mean n=3): 6.67%
DPSI CA12_1 chr15:61406400-61406485 (5227833 minus DMSO, mean n=3): 0.67%
DPSI CA12_1 chr15:61407349-61407382 (5227833 minus DMSO, mean n=3): -2.67%
DPSI CASP9_1 chr1:15703693-15703840* (5227833 minus DMSO, mean n=3): -1.33%
DPSI CAST_1 chr5:96090613-96090669 (5227833 minus DMSO, mean n=3): -3.33%
DPSI CLSTN1_1 chr1:9720143-9720199 (5227833 minus DMSO, mean n=3): -17.00%
DPSI CLSTN1_2 chr1:9739126-9739155 (5227833 minus DMSO, mean n=3): -4.67%
DPSI CRBN_1 chr3:3191846-3191950 (5227833 minus DMSO, mean n=3): 0.00%
DPSI CRBN_1 chr3:3191950-3191953 (5227833 minus DMSO, mean n=3): -2.00%
DPSI CTNND1_1 chr11:57318058-57318129 (5227833 minus DMSO, mean n=3): -6.67%
DPSI DNM1L_1 chr12:32782066-32782143 (5227833 minus DMSO, mean n=3): 7.67%
DPSI DNM1L_1 chr12:32782465-32782497 (5227833 minus DMSO, mean n=3): -4.33%
DPSI DRCTNNB1A_1 chr7:22953096-22953391 (5227833 minus DMSO, mean n=3): -8.33%
DPSI EIF4A2_1 chr7:187988792-187988899 (5227833 minus DMSO, mean n=3): -10.67%
DPSI EIF4A2_1 chr7:187988899-187988904 (5227833 minus DMSO, mean n=3): -7.67%
DPSI EIF4H_1 chr7:73242512-73242572 (5227833 minus DMSO, mean n=3): -5.00%
DPSI ERC1_1 chr12:1091641-1091725 (5227833 minus DMSO, mean n=3): -11.00%
DPSI EXOC7_1 chr17:71598005-71598035 (5227833 minus DMSO, mean n=3): -3.67%
DPSI EXOC7_1 chr17:71598819-71598911 (5227833 minus DMSO, mean n=3): -5.67%
DPSI FAM62B_1 chr7:158238233-158238295 (5227833 minus DMSO, mean n=3): -4.67%
DPSI FAM104A_1 chr17:68720412-68720474 (5227833 minus DMSO, mean n=3): -5.00%
DPSI FGFR1OP2_1 chr12:27004715-27004828 (5227833 minus DMSO, mean n=3): -20.67%
DPSI FIP1L1_1 chr4:53975538-53975646 (5227833 minus DMSO, mean n=3): -14.67%
DPSI GGCT_1 chr7:30504943-30505080 (5227833 minus DMSO, mean n=3): 3.00%
DPSI GGCT_1 chr7:30506676-30506822 (5227833 minus DMSO, mean n=3): -0.33%
DPSI GLK_1 chr2:39388587-39388650 (5227833 minus DMSO, mean n=3): -13.67%
DPSI GM130_1 chr9:130069293-130069374 (5227833 minus DMSO, mean n=3): -18.33%
DPSI GRB10_1 chr7:50651400-50651538 (5227833 minus DMSO, mean n=3): 0.67%
DPSI KIF13A_1 chr6:17879324-17879428 (5227833 minus DMSO, mean n=3): -0.33%
DPSI MACF1_1 chr1:39616720-39616782 (5227833 minus DMSO, mean n=3): 14.00%
DPSI MACF1_5 chr1:39719179-39719289 (5227833 minus DMSO, mean n=3): -18.33%
DPSI MAP3K7_1 chr6:91310992-91311072 (5227833 minus DMSO, mean n=3): 2.67%
DPSI MARK3_1 chr14:103034592-103034618 (5227833 minus DMSO, mean n=3): -9.00%
DPSI MARK3_1 chr14:103036246-103036290 (5227833 minus DMSO, mean n=3): -5.33%
DPSI MBD1_1 chr18:46054554-46054721 (5227833 minus DMSO, mean n=3): -3.33%
DPSI MBNL2_1 chr13:96807051-96807104 (5227833 minus DMSO, mean n=3): 17.33%
DPSI MFF_1 chr2:227901637-227901749 (5227833 minus DMSO, mean n=3): -11.67%
DPSI MRIP_1 chr17:17024646-17024708 (5227833 minus DMSO, mean n=3): -6.33%
DPSI MVK_1 chr12:108501990-108502134 (5227833 minus DMSO, mean n=3): 15.67%
DPSI MVK_1 chr12:108503583-108503738 (5227833 minus DMSO, mean n=3): 16.67%
DPSI NAP1L1_1 chr12:74747418-74747520 (5227833 minus DMSO, mean n=3): -15.67%
DPSI NAP1L1_1 chr12:74748956-74749041 (5227833 minus DMSO, mean n=3): -18.33%
DPSI NPHP3_1 chr3:133898264-133898347 (5227833 minus DMSO, mean n=3): -6.67%
DPSI PDCL_1 chr9:124628716-124628892 (5227833 minus DMSO, mean n=3): 3.67%
DPSI POLDIP3_1 chr22:41327919-41328006 (5227833 minus DMSO, mean n=3): -17.00%
DPSI POMT1_1 chr9:133368281-133368521 (5227833 minus DMSO, mean n=3): 4.67%
DPSI POMT1_1 chr9:133371321-133371428 (5227833 minus DMSO, mean n=3): -10.00%
DPSI RAI14_1 chr5:34849436-34849522 (5227833 minus DMSO, mean n=3): 2.33%
DPSI RAN_1 chr12:129923082-129923127 (5227833 minus DMSO, mean n=3): -2.00%
DPSI RPS24_1 chr10:79467729-79467746 (5227833 minus DMSO, mean n=3): 3.00%
DPSI SEC24B_1 chr4:110622281-110622386 (5227833 minus DMSO, mean n=3): -18.67%
DPSI SETD5_1 chr3:9453533-9453572 (5227833 minus DMSO, mean n=3): -3.33%
DPSI SMN2_1 chr5_h2_hap1:475625-475826 (5227833 minus DMSO, mean n=3): 2.33%
DPSI SMN2_2 chr5_h2_hap1:466192-466246 (5227833 minus DMSO, mean n=3): -7.33%
DPSI SPAG9_1 chr17:46408223-46408261 (5227833 minus DMSO, mean n=3): -12.00%
DPSI SRPK2_1 chr2:104553464-104553557 (5227833 minus DMSO, mean n=3): -9.00%
DPSI SRPK2_1 chr2:104553930-104554023 (5227833 minus DMSO, mean n=3): 5.67%
DPSI TPM1_1 chr15:61140450-61140525 (5227833 minus DMSO, mean n=3): 1.00%
DPSI TPM1_1 chr15:61140965-61141040 (5227833 minus DMSO, mean n=3): -1.00%
DPSI TRIM37_1 chr17:54433741-54433857 (5227833 minus DMSO, mean n=3): -6.67%
DPSI ZNF827_1 chr4:146903692-146903724 (5227833 minus DMSO, mean n=3): -17.67%
DPSI ZNF827_1 chr4:146905581-146905589 (5227833 minus DMSO, mean n=3): 0.00%
DPSI NUMB_2 chr14:72815742-72815885 (5227833 minus DMSO, mean n=3, table row r49): 3.67%
DPSI NUMB_2 chr14:72815742-72815885 (5227833 minus DMSO, mean n=3, table row r63): 6.33%
AS events with DPSI ≤ -10% [1]: 10
AS events with DPSI ≥ 10% [1]: 1
AS events with P ≤ 0.05 [1]: 22

From article PMC5267425, “Identification of small molecule modulators of HIV-1 Tat and Rev protein accumulation” (Retrovirology, 2017)
